The record followed here is patent publication US11572590B2, “Methods for evaluating tumor cell spheroids using 3D microfluidic cell culture device” (Dana-Farber Cancer Institute, Inc., priority 2017, dated 2023).

Read-outs that look alike come from different tables or passages of the source.

Common to all, as to test: SelectScreen Kinase Profiling, single point inhibition and IC50 for off-target kinases
Holding throughout (assay type): biochemical

Assay [1] concerns the target T1, off-target kinases (Homo sapiens, UniProt Q8TDC3).
T1 sequence (Q8TDC3 1-778): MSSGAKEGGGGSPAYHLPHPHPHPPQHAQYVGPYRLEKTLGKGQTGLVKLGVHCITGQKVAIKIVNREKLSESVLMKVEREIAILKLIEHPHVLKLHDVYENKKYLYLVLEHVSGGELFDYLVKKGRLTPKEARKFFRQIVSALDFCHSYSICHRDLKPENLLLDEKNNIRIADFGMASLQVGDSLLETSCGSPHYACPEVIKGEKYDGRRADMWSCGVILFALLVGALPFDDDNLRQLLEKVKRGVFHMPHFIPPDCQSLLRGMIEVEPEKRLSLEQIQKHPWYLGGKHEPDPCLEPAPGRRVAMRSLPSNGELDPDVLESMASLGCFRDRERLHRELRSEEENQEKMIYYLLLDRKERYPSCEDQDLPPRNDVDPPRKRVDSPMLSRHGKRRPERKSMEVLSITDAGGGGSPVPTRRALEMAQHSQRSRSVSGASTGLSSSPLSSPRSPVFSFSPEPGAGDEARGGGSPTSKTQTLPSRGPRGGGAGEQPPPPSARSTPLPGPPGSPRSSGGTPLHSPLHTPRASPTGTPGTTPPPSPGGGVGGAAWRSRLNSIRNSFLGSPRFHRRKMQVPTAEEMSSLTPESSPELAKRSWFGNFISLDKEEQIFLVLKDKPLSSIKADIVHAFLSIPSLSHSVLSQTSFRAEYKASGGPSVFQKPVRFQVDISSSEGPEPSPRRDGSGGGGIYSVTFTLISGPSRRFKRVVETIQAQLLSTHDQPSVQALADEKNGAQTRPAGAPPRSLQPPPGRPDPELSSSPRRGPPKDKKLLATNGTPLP
The settings on record: BRSK1 (SAD1), ATP Km app, ZLYTE.

Assay [2] deals with off-target kinases (Homo sapiens, UniProt Q9HAZ1). The note with it: CLK4, LanthaScreen Binding. (Time-resolved FRET reads energy transfer from a long-lived donor to a nearby acceptor.)
Sequence of off-target kinases (Homo sapiens, UniProt Q9HAZ1) (Q9HAZ1 whole entry): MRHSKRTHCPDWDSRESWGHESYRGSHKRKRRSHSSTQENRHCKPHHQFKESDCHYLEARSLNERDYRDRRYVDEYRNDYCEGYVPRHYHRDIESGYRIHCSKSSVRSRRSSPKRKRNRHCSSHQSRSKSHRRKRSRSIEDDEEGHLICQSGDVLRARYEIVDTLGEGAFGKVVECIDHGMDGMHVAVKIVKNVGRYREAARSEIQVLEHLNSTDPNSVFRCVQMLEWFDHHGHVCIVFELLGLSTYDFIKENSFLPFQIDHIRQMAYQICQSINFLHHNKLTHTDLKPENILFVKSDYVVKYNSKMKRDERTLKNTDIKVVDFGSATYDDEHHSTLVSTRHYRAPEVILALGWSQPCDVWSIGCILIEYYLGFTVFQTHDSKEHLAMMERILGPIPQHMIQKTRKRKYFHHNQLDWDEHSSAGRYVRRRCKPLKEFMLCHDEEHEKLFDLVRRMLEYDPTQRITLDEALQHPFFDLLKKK
For assay [3], the target named is off-target kinases (Homo sapiens, UniProt Q99558). The note with it: MAP3K14 (NIK), LanthaScreen Binding.
Sequence of off-target kinases (Homo sapiens, UniProt Q99558) (Q99558 whole entry): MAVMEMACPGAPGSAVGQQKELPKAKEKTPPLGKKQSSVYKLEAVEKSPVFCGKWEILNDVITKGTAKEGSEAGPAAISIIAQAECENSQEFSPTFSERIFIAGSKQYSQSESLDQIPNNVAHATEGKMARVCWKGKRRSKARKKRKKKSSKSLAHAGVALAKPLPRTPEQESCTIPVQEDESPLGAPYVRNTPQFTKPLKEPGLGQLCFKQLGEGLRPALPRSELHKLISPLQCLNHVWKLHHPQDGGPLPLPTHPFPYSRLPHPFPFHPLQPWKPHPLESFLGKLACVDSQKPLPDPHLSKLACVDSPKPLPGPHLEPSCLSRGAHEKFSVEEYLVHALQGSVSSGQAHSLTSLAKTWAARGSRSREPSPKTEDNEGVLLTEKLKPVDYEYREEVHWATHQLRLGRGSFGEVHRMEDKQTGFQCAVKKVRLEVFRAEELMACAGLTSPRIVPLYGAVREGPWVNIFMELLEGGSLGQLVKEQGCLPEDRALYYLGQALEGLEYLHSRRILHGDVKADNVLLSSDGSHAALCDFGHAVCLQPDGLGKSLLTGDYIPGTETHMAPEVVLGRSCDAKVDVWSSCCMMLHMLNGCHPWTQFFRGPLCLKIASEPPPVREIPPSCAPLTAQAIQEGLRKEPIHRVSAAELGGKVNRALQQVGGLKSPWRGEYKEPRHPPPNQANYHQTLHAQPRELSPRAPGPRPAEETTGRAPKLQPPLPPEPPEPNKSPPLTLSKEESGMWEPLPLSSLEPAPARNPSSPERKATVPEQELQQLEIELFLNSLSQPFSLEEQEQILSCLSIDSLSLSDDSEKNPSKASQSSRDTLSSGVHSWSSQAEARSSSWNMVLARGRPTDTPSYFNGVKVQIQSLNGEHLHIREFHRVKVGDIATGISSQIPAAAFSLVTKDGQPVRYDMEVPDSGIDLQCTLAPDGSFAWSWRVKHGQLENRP
For assay [4], the target named is T2, off-target kinases (Homo sapiens, UniProt P36897).
T2 sequence (P36897 34-503): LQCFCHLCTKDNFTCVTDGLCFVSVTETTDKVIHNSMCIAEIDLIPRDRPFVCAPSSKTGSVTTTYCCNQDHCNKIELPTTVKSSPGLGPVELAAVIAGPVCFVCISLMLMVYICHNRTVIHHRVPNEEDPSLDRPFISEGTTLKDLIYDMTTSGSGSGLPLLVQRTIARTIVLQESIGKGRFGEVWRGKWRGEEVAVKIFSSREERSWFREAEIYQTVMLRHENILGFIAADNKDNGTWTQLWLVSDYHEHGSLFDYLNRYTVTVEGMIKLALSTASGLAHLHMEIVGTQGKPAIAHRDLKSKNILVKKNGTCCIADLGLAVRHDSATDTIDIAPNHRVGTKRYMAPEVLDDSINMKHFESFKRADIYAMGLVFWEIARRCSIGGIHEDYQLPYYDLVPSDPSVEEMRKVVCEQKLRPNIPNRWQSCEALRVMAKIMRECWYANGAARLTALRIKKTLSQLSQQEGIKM
The settings on record: TGFBR1 (ALK5), LanthaScreen Binding.

Assay [5] concerns the target off-target kinases (Homo sapiens, UniProt P22607, G697C). The note with it: FGFR3 G697C (mutant), LanthaScreen Binding.
Assay [6] addresses off-target kinases (Homo sapiens, UniProt P51812). The settings on record: RPS6KA3 (RSK2), ZLYTE, ATP Km app.
In assay [7] the target is off-target kinases (Homo sapiens, UniProt P49336). The settings on record: CDK8/cyclin C, LanthaScreen Binding.
Sequence of off-target kinases (Homo sapiens, UniProt P49336) (P49336 whole entry): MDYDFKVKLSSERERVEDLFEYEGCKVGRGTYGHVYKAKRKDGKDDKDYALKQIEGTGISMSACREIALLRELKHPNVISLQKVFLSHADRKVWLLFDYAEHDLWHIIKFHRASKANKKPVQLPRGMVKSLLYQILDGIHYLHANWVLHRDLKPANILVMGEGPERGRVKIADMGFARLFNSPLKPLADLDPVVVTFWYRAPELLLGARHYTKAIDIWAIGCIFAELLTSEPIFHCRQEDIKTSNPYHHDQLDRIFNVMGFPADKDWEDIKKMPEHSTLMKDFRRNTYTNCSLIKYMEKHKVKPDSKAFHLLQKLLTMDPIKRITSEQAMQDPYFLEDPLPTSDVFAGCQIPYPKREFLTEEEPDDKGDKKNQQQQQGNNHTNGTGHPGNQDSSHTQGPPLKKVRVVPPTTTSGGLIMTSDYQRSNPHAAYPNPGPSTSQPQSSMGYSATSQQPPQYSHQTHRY

Sequence of off-target kinases (Homo sapiens, UniProt P22607, G697C) (P22607 23-806 G697C): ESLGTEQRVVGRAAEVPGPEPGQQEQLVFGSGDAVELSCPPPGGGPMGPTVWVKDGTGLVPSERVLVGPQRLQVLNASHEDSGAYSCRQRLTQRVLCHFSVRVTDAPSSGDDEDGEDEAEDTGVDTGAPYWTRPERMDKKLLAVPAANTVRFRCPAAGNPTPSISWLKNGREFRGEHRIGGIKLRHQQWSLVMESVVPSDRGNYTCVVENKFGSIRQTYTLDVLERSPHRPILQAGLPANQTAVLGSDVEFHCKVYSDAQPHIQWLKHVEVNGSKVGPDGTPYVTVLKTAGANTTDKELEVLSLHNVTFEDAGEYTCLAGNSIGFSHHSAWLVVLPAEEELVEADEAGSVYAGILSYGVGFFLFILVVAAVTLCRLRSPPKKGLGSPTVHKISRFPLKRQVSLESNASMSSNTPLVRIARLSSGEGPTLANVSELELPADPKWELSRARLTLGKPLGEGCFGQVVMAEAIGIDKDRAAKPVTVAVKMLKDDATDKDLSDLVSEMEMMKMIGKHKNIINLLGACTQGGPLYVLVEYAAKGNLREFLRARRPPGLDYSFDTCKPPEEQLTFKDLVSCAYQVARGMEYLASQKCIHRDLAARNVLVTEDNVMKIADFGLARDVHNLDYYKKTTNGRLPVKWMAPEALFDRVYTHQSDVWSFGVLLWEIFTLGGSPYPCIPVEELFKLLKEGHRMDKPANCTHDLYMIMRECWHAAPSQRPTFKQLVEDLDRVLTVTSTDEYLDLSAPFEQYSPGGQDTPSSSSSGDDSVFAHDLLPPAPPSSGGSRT
Sequence of off-target kinases (Homo sapiens, UniProt P51812) (P51812 whole entry): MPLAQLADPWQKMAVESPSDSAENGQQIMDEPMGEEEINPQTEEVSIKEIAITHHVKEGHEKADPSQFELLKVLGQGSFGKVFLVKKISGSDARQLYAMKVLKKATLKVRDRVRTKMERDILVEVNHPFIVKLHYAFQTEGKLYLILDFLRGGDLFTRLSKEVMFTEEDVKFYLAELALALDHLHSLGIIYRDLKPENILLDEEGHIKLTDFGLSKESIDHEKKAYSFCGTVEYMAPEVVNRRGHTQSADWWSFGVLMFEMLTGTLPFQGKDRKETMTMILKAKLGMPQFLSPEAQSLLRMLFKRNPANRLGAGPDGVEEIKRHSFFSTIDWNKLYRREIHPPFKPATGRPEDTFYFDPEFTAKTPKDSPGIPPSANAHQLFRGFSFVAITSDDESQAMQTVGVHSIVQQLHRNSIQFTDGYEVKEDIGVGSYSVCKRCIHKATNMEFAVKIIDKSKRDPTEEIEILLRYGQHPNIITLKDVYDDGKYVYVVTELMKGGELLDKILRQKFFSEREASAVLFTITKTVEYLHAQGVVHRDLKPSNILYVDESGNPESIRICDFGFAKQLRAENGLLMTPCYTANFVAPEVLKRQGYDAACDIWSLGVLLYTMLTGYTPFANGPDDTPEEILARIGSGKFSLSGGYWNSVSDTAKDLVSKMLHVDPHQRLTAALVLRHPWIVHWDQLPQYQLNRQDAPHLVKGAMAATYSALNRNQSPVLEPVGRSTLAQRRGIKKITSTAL

As usually defined, the inhibition is the drop in the measured response relative to a control, in per cent. With `N#Cc1cc(-c2ncnc(Nc3ccc(N4CCN(C5COC5)CC4)cc3)n2)ccc1OC1CCOCC1` [Compound 1, 5-(4-((4-(4-(oxetan-3-yl)piperazin-1-yl)phenyl)amino)-1,3,5-triazin-2-yl)-2-((tetrahydro-2H-pyran-4-yl)oxy)benzonitrile], the inhibition at off-target kinases [1] (read-out: % Inhibition 1) was 92%; on off-target kinases [1] (read-out: % Inhibition 2), 89%; at off-target kinases [1] (read-out: % Inhibition Avg) it was 90%; at off-target kinases [2] (read-out: % Inhibition 1), 87%; on off-target kinases [2] (read-out: % Inhibition 2), 89%; on off-target kinases [2] (read-out: % Inhibition Avg), 88%. In addition, the inhibition at off-target kinases [3] (read-out: % Inhibition 1) stood at 20%; at off-target kinases [3] (read-out: % Inhibition 2), 24%; at off-target kinases [3] (read-out: % Inhibition Avg) it was 22%; on off-target kinases [4] (read-out: % Inhibition 1), 56%; on off-target kinases [4] (read-out: % Inhibition 2) it was 58%; on off-target kinases [4] (read-out: % Inhibition Avg) it was 57%. The inhibition is 13% at off-target kinases [5] (read-out: % Inhibition 1); 4% on off-target kinases [5] (read-out: % Inhibition 2); 8% at off-target kinases [5] (read-out: % Inhibition Avg); 17% on off-target kinases [6] (read-out: % Inhibition 1); 10% on off-target kinases [6] (read-out: % Inhibition 2); 14% on off-target kinases [6] (read-out: % Inhibition Avg). Besides, the inhibition on off-target kinases [7] (read-out: % Inhibition 1) worked out at 0%; at off-target kinases [7] (read-out: % Inhibition 2), 3%; at off-target kinases [7] (read-out: % Inhibition Avg), 1%.
